Test results from US10111432B2, “Picolinamide N-oxide compounds with fungicidal activity” (Dow AgroSciences LLC, priority 2016, dated 2018).
Where two headings read alike, the source gives them in different places.

Tests used:
[1] = test system: Zymoseptoria tritici; assay: Fungicidal activity: leaf blotch of wheat (SEPTTR), disease control on wheat seedlings; assay type: in vivo; details: for pest or weed control at 100 ppm: high volume application; for pest or weed control at 121.5 g/ha: low volume application, 121.5 g/H
Procedure: Technical grades of materials were dissolved in acetone, which were then mixed with nine volumes of water (H2O) containing 110 ppm Triton X-100. The fungicide solutions were applied onto wheat seedlings using an automated booth sprayer to run-off. All sprayed plants were allowed to air dry prior to further handling. All fungicides were evaluated using the aforementioned method for their activity vs. all target diseases, unless stated otherwise. Wheat leaf blotch and brown rust activity were also evaluated using track spray applications, in which case the fungicides were formulated as EC formulations, containing 0.1% Trycol 5941 in the spray solutions. Wheat plants (variety Yuma) were grown from seed in a greenhouse in 50% mineral soil/50% soil-less Metro mix until the first leaf was fully emerged, with 7-10 seedlings per pot. These plants were inoculated with an aqueous spore suspension of Zymoseptoria tritici either prior to or after fungicide treatments. After inoculation the plants were kept in 100% relative humidity (one day in a dark dew chamber followed by two to three days in a lighted dew chamber at 20° C.) to permit spores to germinate and infect the leaf. The plants were then transferred to a greenhouse set at 20° C. for disease to develop. When disease symptoms were fully expressed on the 1st leaves of untreated plants, infection levels were assessed on a scale of 0 to 100 percent disease severity. Percent disease control was calculated using the ratio of disease severity on treated plants relative to untreated plants.

[2] = test system: Puccinia triticina; assay: Fungicidal activity: wheat brown rust (PUCCRT), disease control on wheat seedlings; assay type: in vivo; details: for pest or weed control at 100 ppm: high volume application; for pest or weed control at 121.5 g/ha: low volume application, 121.5 g/H
Procedure: Technical grades of materials were dissolved in acetone, which were then mixed with nine volumes of water (H2O) containing 110 ppm Triton X-100. The fungicide solutions were applied onto wheat seedlings using an automated booth sprayer to run-off. All sprayed plants were allowed to air dry prior to further handling. All fungicides were evaluated using the aforementioned method for their activity vs. all target diseases, unless stated otherwise. Wheat leaf blotch and brown rust activity were also evaluated using track spray applications, in which case the fungicides were formulated as EC formulations, containing 0.1% Trycol 5941 in the spray solutions. Wheat plants (variety Yuma) were grown from seed in a greenhouse in 50% mineral soil/50% soil-less Metro mix until the first leaf was fully emerged, with 7-10 seedlings per pot. These plants were inoculated with an aqueous spore suspension of Puccinia triticina either prior to or after fungicide treatments. After inoculation the plants were kept in a dark dew room at 22° C. with 100% relative humidity overnight to permit spores to germinate and infect the leaf. The plants were then transferred to a greenhouse set at 24° C. for disease to develop. Fungicide formulation, application and disease assessment followed the procedures as described in the Example A. Results of the evaluations are shown below in Table 4.

[3] = 24 h, 1 day protectant, read-out: SEPTTR disease control, 1DP, HV activity at 100 ppm
[4] = 24 h, 1 day protectant, read-out: SEPTTR disease control, 1DP, LV activity at 121.5 g/H
[5] = 72 h, 3 day curative, read-out: SEPTTR disease control, 3DC, HV activity at 100 ppm
[6] = 72 h, 3 day curative, read-out: SEPTTR disease control, 3DC, LV activity at 121.5 g/H
[7] = 24 h, 1 day protectant, read-out: PUCCRT disease control, 1DP, HV activity at 100 ppm
[8] = 24 h, 1 day protectant, read-out: PUCCRT disease control, 1DP, LV activity at 121.5 g/H
[9] = 72 h, 3 day curative, read-out: PUCCRT disease control, 3DC, HV activity at 100 ppm
[10] = 72 h, 3 day curative, read-out: PUCCRT disease control, 3DC, LV activity at 121.5 g/H

SMILES	pest or weed control at 100 ppm [1, 3] [%]	pest or weed control at 121.5 g/ha [1, 4] [%]	pest or weed control at 100 ppm [1, 5] [%]	pest or weed control at 121.5 g/ha [1, 6] [%]	pest or weed control at 100 ppm [2, 7] [%]	pest or weed control at 121.5 g/ha [2, 8] [%]	pest or weed control at 100 ppm [2, 9] [%]	pest or weed control at 121.5 g/ha [2, 10] [%]
COc1cc[n+]([O-])c(C(=O)N[C@@H](C)C(=O)O[C@@H](C)C(c2cccc(C)c2)c2cccc(C)c2)c1O [Compound 25]	> 80	> 80	> 80	> 80	> 80	> 80	> 80	> 80
COc1ccc(C(c2ccc(OC)cc2)[C@H](C)OC(=O)[C@H](C)NC(=O)c2c(O)c(OC)cc[n+]2[O-])cc1 [Compound 26]	> 80	–	> 80	–	> 80	–	> 80	–
COc1cc[n+]([O-])c(C(=O)N[C@@H](C)C(=O)O[C@@H](C)[C@H](c2ccc(C)cc2)c2ccc(C)cc2F)c1O [Compound 28]	> 80	> 80	> 80	> 80	> 80	> 80	–	≤ 80
COc1cc[n+]([O-])c(C(=O)N[C@@H](C)C(=O)O[C@@H](C)[C@@H](c2ccc(F)cc2)c2ccc(F)cc2C)c1O [Compound 29]	> 80	> 80	> 80	> 80	> 80	> 80	> 80	≤ 80
COc1ccccc1C(c1ccccc1OC)[C@H](C)OC(=O)[C@H](C)NC(=O)c1c(O)c(OC)cc[n+]1[O-] [Compound 30]	–	> 80	–	> 80	–	≤ 80	–	≤ 80
COc1cc[n+]([O-])c(C(=O)N[C@@H](C)C(=O)O[C@@H](C)[C@@H](c2ccccc2)c2ccc(F)c(C)c2)c1O [Compound 31]	> 80	> 80	> 80	> 80	> 80	> 80	> 80	≤ 80
CCOc1cc(F)ccc1C(c1ccc(F)cc1OCC)[C@H](C)OC(=O)[C@H](C)NC(=O)c1c(O)c(OC)cc[n+]1[O-] [Compound 32]	–	≤ 80	–	≤ 80	–	≤ 80	–	–
COc1cc[n+]([O-])c(C(=O)N[C@@H](C)C(=O)O[C@@H](C)[C@H](c2ccccc2)c2ccc(C)cc2F)c1O [Compound 33]	–	> 80	–	≤ 80	–	≤ 80	–	–
COc1cc[n+]([O-])c(C(=O)N[C@@H](C)C(=O)O[C@@H](C)C(c2ccc(Cl)cc2)c2ccc(Cl)cc2)c1O [Compound 34]	–	> 80	–	> 80	–	> 80	–	–
COc1cccc(C(c2cccc(OC)c2)[C@H](C)OC(=O)[C@H](C)NC(=O)c2c(O)c(OC)cc[n+]2[O-])c1 [Compound 36]	–	≤ 80	–	–	–	≤ 80	–	–
COc1cc(Cl)ccc1C(c1ccc(Cl)cc1OC)[C@H](C)OC(=O)[C@H](C)NC(=O)c1c(O)c(OC)cc[n+]1[O-] [Compound 37]	–	> 80	–	≤ 80	–	> 80	–	–
COc1cc[n+]([O-])c(C(=O)N[C@@H](C)C(=O)O[C@@H](C)[C@H](c2ccc(F)cc2)c2ccc(F)cc2C)c1O [Compound 38]	–	> 80	–	> 80	–	≤ 80	–	–
